The record followed here is EP3095787A1, “[…] ACTIVE COMPOUNDS AS DAG-LIPASE INHIBITORS” (Universiteit Leiden, priority 2015, dated 2016).

As usually defined, the IC50 is the concentration that gives 50% inhibition. Low readings indicate inhibition by little substance, high ones a need for much substance.

The assay has as its target T1, hDAGL-β (Homo sapiens, UniProt Q8NCG7).
T1 sequence (Q8NCG7 1-672): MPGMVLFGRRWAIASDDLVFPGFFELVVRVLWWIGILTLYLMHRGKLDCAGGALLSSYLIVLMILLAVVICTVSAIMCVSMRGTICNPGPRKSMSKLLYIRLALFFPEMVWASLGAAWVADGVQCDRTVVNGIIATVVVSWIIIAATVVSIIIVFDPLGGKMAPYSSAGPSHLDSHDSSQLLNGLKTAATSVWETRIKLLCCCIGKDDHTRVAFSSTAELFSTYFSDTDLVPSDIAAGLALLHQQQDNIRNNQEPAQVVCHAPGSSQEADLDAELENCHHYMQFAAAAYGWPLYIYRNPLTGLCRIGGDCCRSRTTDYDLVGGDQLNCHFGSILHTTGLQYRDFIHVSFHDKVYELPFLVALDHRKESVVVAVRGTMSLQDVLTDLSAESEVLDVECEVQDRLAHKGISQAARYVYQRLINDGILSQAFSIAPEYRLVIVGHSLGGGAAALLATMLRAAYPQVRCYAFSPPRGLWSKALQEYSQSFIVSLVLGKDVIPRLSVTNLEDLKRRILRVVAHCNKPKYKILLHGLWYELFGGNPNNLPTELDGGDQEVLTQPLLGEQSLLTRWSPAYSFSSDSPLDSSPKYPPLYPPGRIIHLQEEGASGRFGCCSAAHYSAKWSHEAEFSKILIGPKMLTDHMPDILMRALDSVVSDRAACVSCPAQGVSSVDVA
Nature of the assay: Biochemical assay with para-nitrophenylbutyrate as surrogate substrate on human DAGL-β. The note with it: n=4.

The molecule `Cc1ccc(-c2cnc3nc(C(=O)CCCCCc4ccccc4)oc3c2)cc1` [Compound 25, 1-(6-(p-Tolyl)oxazolo[4,5-b]pyridin-2-yl)-6-phenylhexan-1-one] showed an IC50 of 7.94 nM.
